Measurements published in US20060147456A1, “Induction of apoptosis in toll-like receptor expressing tumor cells” (priority 2004, published 2006).
Residues, ends and D or L forms follow the SMILES beside them. *: point of attachment. Cbz = O=C(OCc1ccccc1)*; CH2F = FC*

Key:
Type in all cases: cell-based, human
[1] = tested on: Cama-1 cells; test: Apoptosis by annexin V staining and flow cytometry; settings: Cama-1; for effect on Poly IC induced apoptosis: 5 μg/ml Poly IC; for percentage of apoptotic cells: 5 μg/ml Poly IC or 25 ng/ml TNF-α
Protocol: (§1) Cell recovery after treatment with TLR ligands was measured by crystal violet staining (Sigma-Aldrich). Cells were plated at 10^4 cells/well in 96 well plates. After 72 hours of culture either with or without TLR ligand, the cells were washed with PBS, fixed in 6% formaldehyde (Sigma-Aldrich) for 20 minutes, washed twice, and then stained with 0.1% crystal violet for 10 minutes. After washes and incubation in 1% SDS for 1 hour, the absorbance was read at 605 nm on a Vmax plate reader (Molecular Devices, Sunnyvale, Calif.). Annexin V staining was performed with an annexin-FITC apoptosis detection kit (BD Pharmingen, San Diego, Calif.) according to the manufacturer's instructions. Sub-diploid cells were detected by staining with 3 μg/mL propidium iodide (PI) (Molecular probes, Eugene, Oreg.), after overnight permeabilization in 70% ethanol. Fluorescence was analyzed by flow cytometry on a FACScalibur (Becton Dickinson, Mountain View, Calif.) equipped with a doublet-discrimination module and using Celiquest Pro software (Becton Dickinson).
Cama-1 cells were plated in 6 well plates at 3×10^5 cells per well. After overnight adherence, siRNA transfections were performed for 5 hours in OptiMEM medium (Life technologies) containing 3 μg/mL lipofectamine 2000 (Invivogen) and 100 nM siRNA. Cells were then washed and cultured for 72 hours in complete medium before treatment with Poly IC and apoptosis analysis. siRNA duplexes specific for TLR3, PKR, IRAK-4, TRAF6 and p65 were purchased from Dharmacon (Lafayette, Colo.) as SMART-Pools. TRIF siRNA was purchased from the same supplier as single oligoduplexes (5′-GCUCUUGUAUCUGMGCAC-3′) (SEQ ID NO: 23). TLR3 and TRIF expression was assessed by PCR (35 cycles: 1 min 94° C., 1 min 55° C., 2 min 72° C.) with Taq PCR ReadyMix (Sigma-Aldrich) using following primers: […]
To further investigate the effect of Poly IC treatment on breast tumor cell lines, cell death was analyzed in Cama-1 cells by annexin V staining. Cells were cultured for 24 hours either with or without 5 μg/ml of Poly IC. Apoptosis was measured by annexin V staining and flow cytometry.
We also tried to determine the kinetics of Poly IC induced apoptosis. Cama-1 cells were cultured either with or without 5 μg/ml or 50 ng/ml of Poly IC. The percentage of apoptotic (annexin positive) cells in the culture were measured during the following 30 hours. […] Specifically, Poly IC triggered apoptosis in Cama-1 cells beginning 9 hours after Poly IC addition and reaching up to 80% apoptotic cells after 30 hours of treatment.
Poly AU was analyzed for its effects on apoptosis. Cama-1 cells were cultured for 48 hours either with PBS or with increasing concentrations of Poly AU ranging from 5 ng/ml to 50 μg/ml. Apoptosis was analyzed by measuring the percentage of annexin V positive cells.
In order to determine the pathway of Poly IC induced Cama-1 cell toxicity, RNA interference was used to efficiently downregulate expression of TRIF and PKR. Cama-1 cells were plated in 6 well plates at 3×10^5 cells per well. After overnight adherence, siRNA transfections were performed for 5 hours in OptiMEM medium (Life technologies) containing 3 μg/mL lipofectamine 2000 (Invivogen) and 100 nM siRNA. Cells were transfected with either MOCK (water), control scrambled duplex (scr) siRNA, TRIF siRNA or PKR siRNA.
72 hours after siRNA transfection, Cama-1 cells were cultured for another 24 hours either with or without 5 μg/ml Poly IC. Apoptosis was measured by annexin V staining and expressed as a percentage of apoptotic cells in culture. On average, 10% of control cells (MOCK and scr) that were untreated underwent apoptosis. In contrast, about 75% of control cells (MOCK and scr) that were treated with Poly IC underwent apoptosis.
To further investigate TLR3 mediated cytotoxicity, the involvement of the signaling molecules IRAK4 and TRAF6, both downstream mediators of TLR signaling, were assessed. Cama-1 cells were plated in 6 well plates at 3×10^5 cells per well. […]

[2] = tested on: Cama-1, SW527, BT483 and MCF-7; test: Cell recovery by crystal violet staining, four breast tumor cell lines together; settings: 72 h, 5 μg/ml PGN; for effect on cell recovery of any of the four breast cancer cell lines: 10 μg/ml LPS, 50 ng/ml flagellin, 6 μg/ml R848, 10 μg/ml CpG ODNs; for cell recovery, percent of control, on average: 50 μg/ml Poly IC or 10 μg/ml LPS, average of the four cell lines
Protocol: as §1
Four human breast tumor cell lines, Cama-1, SW527, BT483 and MCF-7, were analyzed for cell death in response to Poly IC. Cells were cultured for 72 hours with 5 μg/ml PGN, 50 μg/ml Poly IC or 10 μg/ml LPS. Control cells were cultured with PBS. Cytotoxicity was assessed by crystal violet staining and expressed as a percent of control.
Furthermore, additional TLR ligands were tested to determine any possible effects on cellular toxicity. The ligands tested were PGN, LPS, Flagellin, R848 and CpG. Cells were cultured for 72 hours with 5 μg/ml PGN, 10 μg/ml LPS, 50 ng/ml flagellin, 6 μg/ml R848, 10 μg/ml CpG ODNs, or with PBS as control. Cell recovery was assessed by crystal violet staining and expressed as a percent of control.

[3] = tested on: TLR3 mRNA; test: TLR3 mRNA expression by RT-PCR in Cama-1 cells; settings: 48 h, 5 μg/ml, agent alone
Protocol: Cama-1 cells were analyzed for TLR3 mRNA expression in response to Poly IC. Cama-1 cells were cultured in complete medium (DMEM F12 containing […] glucose and complemented with 2 mM L-glutamine, 10% fetal calf serum, 160 μg/mL gentalline, 2.5 mg/mL sodium bicarbonate) for 48 hours either alone or with LPS (5 μg/ml) and/or with Poly IC (5 μg/ml). The mRNA from each group of cells was extracted. The mRNA was then reverse-transcribed and PCR amplified for 35 cycles (as above in Example 1) with hTLR3 specific primers: TLR3F: […] (SEQ ID NO: 5) and TLR3R: […] (SEQ ID NO: 6). TLR3 mRNA could not be amplified from resting Cama-1 cells.
Amplified DNA from RT-PCR using hTLR3 specific primers was run on a gel.

[4] = tested on: IL-8; test: IL-8 secretion by breast cancer cell lines; settings: certain cell lines

## polyadenylic-polyuridylic acid [Poly AU]
[1]; 48 h, 5 ng/ml to 50 μg/ml Poly AU
  apoptosis (annexin V positive cells): triggers apoptosis

## lipopolysaccharide [LPS]
[2]
  effect on cell recovery of any of the four breast cancer cell lines: None of those ligands significantly reduced cell recovery
  cell recovery, percent of control, on average: 95%
[3]
  TLR3 mRNA expression: did not affect TLR3 mRNA expression

## COC(=O)C[C@H](NC(=O)[C@H](C)NC(=O)[C@@H](NC(=O)OCc1ccccc1)C(C)C)C(=O)CF [z-VAD-fmk] (Cbz-Val-Ala-Asp(OMe)-CH2F)
[1]; annexin V
  effect on Poly IC induced apoptosis: greatly reduced Poly IC induced apoptosis

## Flagellin
[2]
  effect on cell recovery of any of the four breast cancer cell lines: None of those ligands significantly reduced cell recovery

## CCOCc1nc2c(N)nc3ccccc3c2n1CC(C)(C)O [R848]
[2]
  effect on cell recovery of any of the four breast cancer cell lines: None of those ligands significantly reduced cell recovery

## Peptidoglycan [PGN]
[2]
  effect on cell recovery of any of the four breast cancer cell lines: None of those ligands significantly reduced cell recovery
  cell recovery, percent of control, on average: 95%
[4]
  secretion of IL-8: induced secretion of IL-8 in certain cell lines

## TNF-α
[1]; 25 μM z-VAD-fmk pre-incubation 1 h, 24 h
  percentage of apoptotic cells: 10%
[1]; DMSO pre-incubation 1 h, 24 h
  percentage of apoptotic cells: 40%
[1]; absence of antibody (Example 12)
  percentage of apoptotic cells: 40%
[1]; pre-incubated with 10 μg/ml CHX, untreated 15%
  percentage of apoptotic cells: 70%
[1]; pre-incubated with 20 μg/ml neutralizing anti TNF-α mAb
  percentage of apoptotic cells: 10%

## C[C@@H]1C[C@@H]([C@H](O)CC2CC(=O)NC(=O)C2)C(=O)[C@@H](C)C1 [CHX, Cycloheximide]
[1]; 25 ng/ml TNF-α, annexin V
  effect on TNF-α induced apoptosis: significantly sensitized Cama-1 cells to TNF-α induced apoptosis
[1]; annexin V
  effect on Poly IC induced apoptosis: partially protected the cells against Poly IC induced apoptosis
